Laboratory results as given in patent publication US12187713B2, “Immunomodulators, compositions and methods thereof” (Betta Pharmaceuticals Co., Ltd, priority 2019, dated 2025).

Each compound was assayed against PD-1/PD-L1 (Homo sapiens (Human), UniProt Q9NZQ7) (assay: PD-1/PD-L1 Binding Assay (Alphascreen)). Settings: numeric values.
Procedure, shortened: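 PD-1/PD-L1 binding detected by anti-6×His acceptor and streptavidin donor beads after 120 min in the dark at 25 °C. Beforehand, the two proteins were incubated 15 min at 25 °C with inhibitor at 0.015–300 nM (1% DMSO). IC50 comes from a log concentration–response curve.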

PD-1/PD-L1, sequence (Q9NZQ7 19-238): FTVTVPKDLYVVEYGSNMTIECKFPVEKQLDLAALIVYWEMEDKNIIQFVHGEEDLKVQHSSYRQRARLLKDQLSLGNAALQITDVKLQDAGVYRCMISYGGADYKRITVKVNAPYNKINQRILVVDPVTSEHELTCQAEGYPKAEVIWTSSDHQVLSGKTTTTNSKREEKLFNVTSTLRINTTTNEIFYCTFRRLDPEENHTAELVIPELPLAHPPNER

Structure (SMILES) | IC50 [nM]
Cc1c(-c2nc3ccc(CN4CC(C)(C)C4)cc3o2)cccc1-c1cccc(-c2nc3cc(CN4CCC[C@H]4C(=O)O)c(OC(F)F)cc3o2)c1C [Example 109, ((6-(difluoromethoxy)-2-(3′-(6-((3,3-dimethylazetidin-1-yl)methyl)benzo[d]oxazol-2-yl)-2,2′-dimethyl-[1,1′-biphenyl]-3-yl)benzo[d]oxazol-5-yl)methyl)-L-proline] | 1.6
Cc1c(-c2nc3cc(CN4CCC[C@H]4C(=O)O)c(OC(F)F)cc3o2)cccc1-c1cccc(-c2nc3cc(CN4CC(C)(C)C4)cnc3o2)c1C [Example 113, ((6-(difluoromethoxy)-2-(3′-(6-((3,3-dimethylazetidin-1-yl)methyl)oxazolo[5,4-b]pyridin-2-yl)-2,2′-dimethyl-[1,1′-biphenyl]-3-yl)benzo[d]oxazol-5-yl)methyl)-L-proline] | 0.5
Cc1c(-c2nc3cc(CN4CCC[C@H]4C(=O)O)c(OC(F)F)cc3o2)cccc1-c1cccc(-c2nc3cc(CN4CCCC4)c(F)c(F)c3o2)c1C#N [Example 118, ((2-(2′-cyano-3′-(6,7-difluoro-5-(pyrrolidin-1-ylmethyl)benzo[d]oxazol-2-yl)-2-methyl-[1,1′-biphenyl]-3-yl)-6-(difluoromethoxy)benzo[d]oxazol-5-yl)methyl)-L-proline] | 78
Cc1c(-c2nc3cc(CNCCO)c(OCc4ccc(C#N)nc4)cc3o2)cccc1-c1cccc(-c2nc3cc(CN4CCC[C@H]4C(=O)O)c(OC(F)F)cc3o2)c1C [Example 119, ((2-(3′-(6-((6-cyanopyridin-3-yl)methoxy)-5-(((2-hydroxyethyl)amino)methyl)benzo[d]oxazol-2-yl)-2,2′-dimethyl-[1,1′-biphenyl]-3-yl)-6-(difluoromethoxy)benzo[d]oxazol-5-yl)methyl)-L-proline] | 1.9
Cc1c(-c2nc3cc(CNCCO)c(OCc4cncc(C#N)c4)cc3o2)cccc1-c1cccc(-c2nc3cc(CN4CCC[C@H]4C(=O)O)c(OC(F)F)cc3o2)c1C [Example 120, ((2-(3′-(6-((5-cyanopyridin-3-yl)methoxy)-5-(((2-hydroxyethyl)amino)methyl)benzo[d]oxazol-2-yl)-2,2′-dimethyl-[1,1′-biphenyl]-3-yl)-6-(difluoromethoxy)benzo[d]oxazol-5-yl)methyl)-L-proline] | 1.1
Cc1c(-c2nc3cc(CNCCO)c(OCc4cncc(S(C)(=O)=O)c4)cc3o2)cccc1-c1cccc(-c2nc3cc(CN4CCC[C@H]4C(=O)O)c(OC(F)F)cc3o2)c1C [Example 121, ((6-(difluoromethoxy)-2-(3′-(5-(((2-hydroxyethyl)amino)methyl)-6-((5-(methylsulfonyl)pyridin-3-yl)methoxy)benzo[d]oxazol-2-yl)-2,2′-dimethyl-[1,1′-biphenyl]-3-yl)benzo[d]oxazol-5-yl)methyl)-L-proline] | 0.6
Cc1c(-c2nc3cc(CN4CC(C)(C)C4)c(OC(F)F)cc3o2)cccc1-c1cccc(-c2nc3cc(CN4CCC[C@H]4C(=O)O)c(OC(F)F)cc3o2)c1C#N [Example 128, ((2-(2-cyano-3′-(6-(difluoromethoxy)-5-((3,3-dimethylazetidin-1-yl)methyl)benzo[d]oxazol-2-yl)-2′-methyl-[1,1′-biphenyl]-3-yl)-6-(difluoromethoxy)benzo[d]oxazol-5-yl)methyl)-L-proline] | 0.14
Cc1c(-c2nc3cc(CN4CCC[C@H]4C(=O)O)c(OC(F)F)cc3o2)cccc1-c1cccc(-c2nc3cc(CN4CC(C)(CO)C4)cc(C#N)c3o2)c1C [Example 129, ((2-(3′-(7-cyano-5-((3-(hydroxymethyl)-3-methylazetidin-1-yl)methyl)benzo[d]oxazol-2-yl)-2,2′-dimethyl-[1,1′-biphenyl]-3-yl)-6-(difluoromethoxy)benzo[d]oxazol-5-yl)methyl)-L-proline] | 1.7
Cc1c(-c2nc3cc(CN4CCC[C@@H]4C(=O)O)c(OC(F)F)cc3o2)cccc1-c1cccc(-c2nc3cc(CN4CC[C@@H](C)C4)cc(C#N)c3o2)c1C [Example 132, ((2-(3′-(7-cyano-5-(((R)-3-methylpyrrolidin-1-yl)methyl)benzo[d]oxazol-2-yl)-2,2′-dimethyl-[1,1′-biphenyl]-3-yl)-6-(difluoromethoxy)benzo[d]oxazol-5-yl)methyl)-D-proline] | 2

Same assay, conditions: range symbols

Structure (SMILES) | IC50 [nM]
Cc1c(-c2nc3cc(CN4CCC45CCC5)ccc3o2)cccc1-c1cccc(-c2nc3cc(CN4CCC[C@H]4C(=O)O)c(OC(F)F)cc3o2)c1C [Example 107, ((2-(3′-(5-((1-azaspiro[3.3]heptan-1-yl)methyl)benzo[d]oxazol-2-yl)-2,2′-dimethyl-[1,1′-biphenyl]-3-yl)-6-(difluoromethoxy)benzo[d]oxazol-5-yl)methyl)-L-proline] | 0.1 to 5
Cc1c(-c2nc3cc(CN4CCC[C@H]4C(=O)O)c(OC(F)F)cc3o2)cccc1-c1cccc(-c2nc3ccc(CN4CC(C)(C)C4)cc3o2)c1Cl [Example 110, ((2-(2′-chloro-3′-(6-((3,3-dimethylazetidin-1-yl)methyl)benzo[d]oxazol-2-yl)-2-methyl-[1,1′-biphenyl]-3-yl)-6-(difluoromethoxy)benzo[d]oxazol-5-yl)methyl)-L-proline] | 0.1 to 5
Cc1c(-c2nc3cc(CN4CCC[C@@H]4C(=O)O)c(OC(F)F)cc3o2)cccc1-c1cccc(-c2nc3ccc(CN4CC(C)(C)C4)cc3o2)c1Cl [Example 111, ((2-(2′-chloro-3′-(6-((3,3-dimethylazetidin-1-yl)methyl)benzo[d]oxazol-2-yl)-2-methyl-[1,1′-biphenyl]-3-yl)-6-(difluoromethoxy)benzo[d]oxazol-5-yl)methyl)-D-proline] | 0.1 to 5
Cc1c(-c2nc3cc(CN4CCC[C@H]4C(=O)O)c(OC(F)F)cc3o2)cccc1-c1cccc(-c2nc3cc(CN4CCCC4)cnc3o2)c1C [Example 112, ((6-(difluoromethoxy)-2-(2,2′-dimethyl-3′-(6-(pyrrolidin-1-ylmethyl)oxazolo[5,4-b]pyridin-2-yl)-[1,1′-biphenyl]-3-yl)benzo[d]oxazol-5-yl)methyl)-L-proline] | 0.1 to 5
Cc1c(-c2nc3cc(CN4CCC[C@H]4C(=O)O)c(OC(F)F)cc3o2)cccc1-c1cccc(-c2nc3cc(CNCC4CCC(=O)N4)cnc3o2)c1C (stereo partly drawn) [Example 115, ((6-(difluoromethoxy)-2-(2,2′-dimethyl-3′-(6-((((5-oxopyrrolidin-2-yl)methyl)amino)methyl)oxazolo[5,4-b]pyridin-2-yl)-[1,1′-biphenyl]-3-yl)benzo[d]oxazol-5-yl)methyl)-L-proline] | 0.1 to 5
Cc1c(-c2nc3cc(CN4CCC[C@H]4C(=O)O)c(OC(F)F)cc3o2)cccc1-c1cccc(-c2nc3cc(CN4CC(N(C)C)C4)cnc3o2)c1C [Example 116, ((6-(difluoromethoxy)-2-(3′-(6-((3-(dimethylamino)azetidin-1-yl)methyl)oxazolo [5,4-b]pyridin-2-yl)-2,2′-dimethyl-[1,1′-biphenyl]-3-yl)benzo[d]oxazol-5-yl)methyl)-L-proline] | 0.1 to 5
CCNCc1cc2nc(-c3cccc(-c4cccc(-c5nc6cc(CN7CCC[C@H]7C(=O)O)c(OC(F)F)cc6o5)c4C)c3C)oc2cc1OCc1cncc(S(C)(=O)=O)c1 [Example 122, ((6-(difluoromethoxy)-2-(3′-(5-((ethylamino)methyl)-6-((5-(methylsulfonyl)pyridin-3-yl)methoxy)benzo[d]oxazol-2-yl)-2,2′-dimethyl-[1,1′-biphenyl]-3-yl)benzo[d]oxazol-5-yl)methyl)-L-proline] | 0.1 to 5
Cc1c(-c2nc3cc(CN(C)C)c(OCc4cncc(S(C)(=O)=O)c4)cc3o2)cccc1-c1cccc(-c2nc3cc(CN4CCC[C@H]4C(=O)O)c(OC(F)F)cc3o2)c1C [Example 123, ((6-(difluoromethoxy)-2-(3′-(5-((dimethylamino)methyl)-6-((5-(methylsulfonyl)pyridin-3-yl)methoxy)benzo[d]oxazol-2-yl)-2,2′-dimethyl-[1,1′-biphenyl]-3-yl)benzo[d]oxazol-5-yl)methyl)-L-proline] | 0.1 to 5
CNCc1cc2nc(-c3cccc(-c4cccc(-c5nc6cc(CN7CCC[C@H]7C(=O)O)c(OC(F)F)cc6o5)c4C)c3C)oc2cc1OCc1cccc(S(C)(=O)=O)c1 [Example 124, ((6-(difluoromethoxy)-2-(2,2′-dimethyl-3′-(5-((methylamino)methyl)-6-((3-(methylsulfonyl)benzyl)oxy)benzo[d]oxazol-2-yl)-[1,1′-biphenyl]-3-yl)benzo[d]oxazol-5-yl)methyl)-L-proline] | 0.1 to 5
CNCc1cc2nc(-c3cccc(-c4cccc(-c5nc6cc(CN7CCC[C@H]7C(=O)O)c(OC(F)F)cc6o5)c4C)c3C)oc2cc1OCc1ccc(S(C)(=O)=O)cc1 [Example 125, ((6-(difluoromethoxy)-2-(2,2′-dimethyl-3′-(5-((methylamino)methyl)-6-((4-(methylsulfonyl)benzyl)oxy)benzo[d]oxazol-2-yl)-[1,1′-biphenyl]-3-yl)benzo[d]oxazol-5-yl)methyl)-L-proline] | 0.1 to 5
Cc1c(-c2nc3cc(CN(C)C)c(OCc4ccc(S(C)(=O)=O)cc4)cc3o2)cccc1-c1cccc(-c2nc3cc(CN4CCC[C@H]4C(=O)O)c(OC(F)F)cc3o2)c1C [Example 126, ((6-(difluoromethoxy)-2-(3′-(5-((dimethylamino)methyl)-6-((4-(methylsulfonyl)benzyl)oxy)benzo[d]oxazol-2-yl)-2,2′-dimethyl-[1,1′-biphenyl]-3-yl)benzo[d]oxazol-5-yl)methyl)-L-proline] | 0.1 to 5
Cc1c(-c2nc3cc(CN4CCC[C@H]4C(=O)O)c(OC(F)F)cc3o2)cccc1-c1cccc(-c2nc3cc(CN4CC[C@H](C)C4)cc(C#N)c3o2)c1C [Example 130, ((2-(3′-(7-cyano-5-(((S)-3-methylpyrrolidin-1-yl)methyl)benzo[d]oxazol-2-yl)-2,2′-dimethyl-[1,1′-biphenyl]-3-yl)-6-(difluoromethoxy)benzo[d]oxazol-5-yl)methyl)-L-proline] | 0.1 to 5
